Laboratory results: patent US8633184B2, “Benzoazepin-oxy-acetic acid derivatives as PPAR-delta agonists used for the increase of HDL-C, lower LDL-C and lower cholesterol” (Janssen Pharmaceutica N.V., priority 2006, dated 2014)
Several values for one entry are separate records, joined by “and”; a condition that tells them apart may be missing. Equal entries are not always repeated. Where two headings read alike, the source gives them in different places. Blank lines part the entries; values can stand above or below the compound they belong to.

Assays:
PPARγ = target: T1, PPARγ (Homo sapiens, UniProt P37231); test: Transfection assay, GAL4-PPARγ LBD luciferase reporter in HEK293 cells; format: cell-based; details: 18-24 hrs
T1 construct: expressed in transfected cells; host or cells: HEK293
T1 sequence (P37231 238-503 limits assumed): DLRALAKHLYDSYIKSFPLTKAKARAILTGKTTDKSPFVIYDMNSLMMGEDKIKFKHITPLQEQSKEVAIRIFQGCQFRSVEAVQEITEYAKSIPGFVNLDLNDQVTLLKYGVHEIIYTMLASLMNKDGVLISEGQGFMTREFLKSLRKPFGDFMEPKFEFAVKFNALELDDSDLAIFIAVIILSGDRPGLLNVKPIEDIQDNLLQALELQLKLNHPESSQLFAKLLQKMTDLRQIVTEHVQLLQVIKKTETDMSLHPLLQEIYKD
Procedure: (§1) HEK293 cells were grown in DMEM/F12 medium supplemented with 10% FBS and glutamine (Invitrogen) and incubated in a 5% CO2 incubator at 37° C. The cells were co-transfected using DMRIE-C reagent (Invitrogen) in serum free medium (Opti-MEM, Invitrogen) with two mammalian expression plasmids, one containing the DNA sequence coding for the ligand binding domains of either PPARα, γ or δ fused to the yeast GAL4 DNA binding domain and the other containing the promoter sequence of the yeast GAL4 (UAS) fused to the firefly luciferase cDNA reporter. The next day, the medium was changed to DMEM/F12 medium supplemented with 5% charcoal treated serum (Hyclone) and glutamine. After 6 hrs the cells were trypsinized and seeded at a density of 50,000 cells/well into 96 well plates and incubated overnight as above. The cells were then treated with test compounds or vehicle and incubated for 18-24 hrs as above. Luciferase reporter activity was measured using the Steady-Glo Luciferase Assay Kit from Promega. DMRIE-C Reagent was purchased from GIBCO Cat. No. 10459-014. OPTI-MEM I Reduced Serum Medium was purchased from GIBCO (Cat. No. 31985). Steady-Glo Luciferase Assay Kit was purchased from Promega (Part #E254B).
(§2) A variety of example compounds have been made and tested, with a range of in vitro results. Below, in Table 2, are representative compounds and data; in some cases, where multiple EC50's are shown, multiple measurements were taken. Naturally, different compounds in Formula (I) may have not activities identical to any one compound below.

PPARα = target: T2, PPARα (Homo sapiens, UniProt Q07869); test: Transfection assay, GAL4-PPARα LBD luciferase reporter in HEK293 cells; format: cell-based; details: 18-24 hrs
T2 construct: expressed in transfected cells; host or cells: HEK293
T2 sequence (Q07869 239-466 limits assumed): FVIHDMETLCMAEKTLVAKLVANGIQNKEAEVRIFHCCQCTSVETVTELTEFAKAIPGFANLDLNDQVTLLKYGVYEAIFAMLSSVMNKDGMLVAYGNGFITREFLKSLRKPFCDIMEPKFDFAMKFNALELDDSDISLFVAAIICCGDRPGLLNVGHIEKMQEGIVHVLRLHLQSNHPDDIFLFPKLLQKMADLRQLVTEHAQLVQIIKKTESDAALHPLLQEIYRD
Procedure: as §1, §2

[1] = system: Sprague Dawley rats fed a diet high in cholesterol; test: Rat study: high cholesterol diet, serum lipids and liver weights after 8 days treatment; format: in vivo; details: for HDL-C / LDL-C / Total Cholesterol / Triglycerides / Liver Weights: 8 days
Description: (§3) Rats carry the majority of serum cholesterol in the HDL lipoprotein fraction while humans carry the majority of serum cholesterol in LDL and VLDL lipoproteins. To mimic a human hypercholesterolemic state in a rodent model, Sprague Dawley rats were fed a diet high in cholesterol (Research Diets, C13002) for 6 days before treatment with the compounds for another 8 days while remaining on the diet. Under this dietary regimen, the vehicle controls (HC: High Cholesterol) typically have serum total cholesterol and LDL-C levels that are increased by 3-8 fold and serum HDL-C is decreased by approximately 30-50% compared with chow diet (lean) controls.
(§4) Compound 7 had no effect on serum triglycerides or liver weights.

[2] = Rat study: drug plasma levels (pharmacokinetics); format: in vivo; details: for Cmax / half-life / AUC(0-t): Sprague Dawley, plasma
[3] = Rat study: drug plasma levels (pharmacokinetics); format: in vivo
Description: as §3, §4

PPARδ = target: T3, PPARδ (Homo sapiens, UniProt Q03181); test: Transfection assay, GAL4-PPARδ LBD luciferase reporter in HEK293 cells; format: cell-based; details: 18-24 hrs
T3 construct: expressed in transfected cells; host or cells: HEK293
T3 sequence (Q03181 211-439 limits assumed): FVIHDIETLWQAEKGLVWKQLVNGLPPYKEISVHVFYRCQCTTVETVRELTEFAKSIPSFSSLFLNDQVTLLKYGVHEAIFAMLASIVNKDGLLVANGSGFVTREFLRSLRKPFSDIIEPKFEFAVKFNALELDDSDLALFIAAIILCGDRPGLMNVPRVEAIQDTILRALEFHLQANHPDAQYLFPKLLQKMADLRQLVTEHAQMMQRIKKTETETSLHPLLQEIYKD
Procedure: as §1, §2

SMILES: O=C(O)COc1ccc2c(c1)CCN(Cc1cc(-c3ccc(C(F)(F)F)cc3)cs1)CC2 [compound 23]
EC50 (PPARγ): > 3000 nM
EC50 (PPARα): > 3000 nM
EC50 (PPARδ): 109 nM and 70.2 nM

SMILES: Cc1cc(-c2ccc(C(F)(F)F)cc2)sc1CN1CCc2ccc(OC(C)(C)C(=O)O)cc2CC1 [compound 14]
EC50 (PPARγ): > 3000 nM
EC50 (PPARα): > 3000 nM
EC50 (PPARδ): 398 nM

SMILES: CC1CN(Cc2ccc(-c3ccc(C(F)(F)F)cc3)s2)CCc2ccc(OCC(=O)O)cc21 (centres unmarked) [compound 25]
EC50 (PPARγ): > 3000 nM
EC50 (PPARα): > 1000 nM
EC50 (PPARδ): 11 nM and 10.8 nM

SMILES: CC(c1ccc(-c2ccc(C(F)(F)F)cc2)s1)N1CCc2ccc(OCC(=O)O)cc2CC1 (racemic) [compound 27]
EC50 (PPARγ): > 3000 nM
EC50 (PPARα): > 3000 nM
EC50 (PPARδ): < 3 nM and 1.4 nM

Now from value to compound, other results behind:

EC50 (PPARγ): > 3000 nM
EC50 (PPARα): > 3000 nM
Liver Weights ([1]; 0.3 mg/kg): 25.0 ± 0.8
Liver Weights ([1]; 1 mg/kg): 23.9 ± 0.5
Liver Weights ([1]; 3 mg/kg): 27.2 ± 0.9
liver weights (effect in words) ([1]; 8 days treatment): no effect
Tmax ([2]; Dose 3, Multiple): 5 h
Cmax ([2]; 0.1 mg/kg, Dose 0.1, Multiple, n = 2): 57 ng/mL
half-life ([2]; 0.1 mg/kg, Dose 0.1, Multiple, n = 2, read-out: t½): ~13 h
Cmax ([2]; 0.3 mg/kg, Dose 0.3, Multiple): 124 ng/mL
AUC(0-t) ([2]; 0.3 mg/kg, Dose 0.3, Multiple, read-out: AUC0-24): 1640 ng·h/mL
Cmax ([2]; 1 mg/kg, Dose 1, Multiple, n = 2): 595 ng/mL
AUC(0-t) ([2]; 1 mg/kg, Dose 1, Multiple, n = 2, read-out: AUC0-24): 10900 ng·h/mL
Cmax ([2]; 3 mg/kg, Dose 3, Multiple): 2030 ng/mL
half-life ([2]; 3 mg/kg, Dose 3, Multiple, read-out: t½): ~36 h
Cmax ([2]; 3 mg/kg, Dose 3, Single, n = 2): 733 ng/mL
AUC(0-t) ([2]; 3 mg/kg, Dose 3, Single, n = 2, read-out: AUC0-24): 14200 ng·h/mL
half-life ([2]; 3 mg/kg, Dose 3, Single, n = 2, read-out: t½): ~29 h
drug plasma levels (Cmax and AUC), in words [3]: dose-related increases
Tmax ([3]; Dose 0.1, Multiple, n = 2): 2.5 h
Tmax ([3]; Dose 0.3, Multiple): 3 h
Tmax ([3]; Dose 1, Multiple, n = 2): 4 h
Tmax ([3]; Dose 3, Single, n = 2): 5.5 h
AUC(0-t) ([3]; Sprague Dawley, plasma, 0.1 mg/kg, Dose 0.1, Multiple, n = 2, read-out: AUC0-24): 772 ng·h/mL
half-life ([3]; Sprague Dawley, plasma, 0.3 mg/kg, Dose 0.3, Multiple, read-out: t½): ~22 h
AUC(0-t) ([3]; Sprague Dawley, plasma, 3 mg/kg, Dose 3, Multiple, read-out: AUC0-24): 37100 ng·h/mL
EC50 (PPARδ): 14.5 nM and 18.9 nM
SMILES: O=C(O)COc1ccc2c(c1)CCN(Cc1ccc(-c3ccc(C(F)(F)F)cc3)s1)CC2 [compound 7]
HDL-C ([1]; 0.1 mg/kg): 24.2 ± 2.9 mg/dL
LDL-C ([1]; 0.1 mg/kg): 32.7 ± 4.7 mg/dL
Total Cholesterol ([1]; 0.1 mg/kg): 239.0 ± 22.4 mg/dL
Triglycerides ([1]; 0.1 mg/kg): 269.8 ± 27.8 mg/dL
HDL-C ([1]; 0.3 mg/kg): 29.6 ± 1.4 mg/dL
LDL-C ([1]; 0.3 mg/kg): 31.2 ± 1.5 mg/dL
Total Cholesterol ([1]; 0.3 mg/kg): 233.2 ± 9.5 mg/dL
Triglycerides ([1]; 0.3 mg/kg): 264.7 ± 29.8 mg/dL
HDL-C ([1]; 1 mg/kg): 31.8 ± 0.9 mg/dL
LDL-C ([1]; 1 mg/kg): 24.4 ± 1.3 mg/dL
Total Cholesterol ([1]; 1 mg/kg): 173.3 ± 7.9 mg/dL
Triglycerides ([1]; 1 mg/kg): 237.7 ± 25.4 mg/dL
HDL-C ([1]; 3 mg/kg): 39.6 ± 1.6 mg/dL
LDL-C ([1]; 3 mg/kg): 20.6 ± 1.5 mg/dL
Total Cholesterol ([1]; 3 mg/kg): 152.2 ± 8.5 mg/dL
Triglycerides ([1]; 3 mg/kg): 299.5 ± 35.9 mg/dL
LDL-C levels (effect in words) ([1]; 8 days treatment): significant decreases
serum total cholesterol levels (effect in words) ([1]; 8 days treatment): significant decreases
serum triglycerides (effect in words) ([1]; 8 days treatment): no effect
HDL-C levels (effect in words) ([1]; 8 days treatment, achieving the levels of the chow fed controls): significantly increased

EC50 (PPARγ): > 3000 nM
EC50 (PPARα): > 3000 nM
EC50 (PPARδ): > 3000 nM
SMILES: O=C(O)COc1ccc2c(c1)CCN(Cc1cccc(-c3ccc(C(F)(F)F)cc3)n1)CC2 [compound 43]

EC50 (PPARγ): > 3000 nM
EC50 (PPARα): > 3000 nM
EC50 (PPARδ): 148 nM and 167 nM
SMILES: O=C(O)COc1ccc2c(c1)CCN(Cc1ccc(-c3ccc(Cl)cc3Cl)o1)CC2 [compound 33]

EC50 (PPARγ): > 1000 nM
EC50 (PPARα): > 1000 nM
EC50 (PPARδ): 12 nM
SMILES: O=C(O)C1(Oc2ccc3c(c2)CCN(Cc2cnc(-c4ccc(C(F)(F)F)cc4)s2)CC3)CC1 [compound 39]
